Biological target: T1, WT LRRK2 (Homo sapiens, UniProt Q5S007)
T1 construct: endogenous in cells; host or cells: HEK293 cells with HiBit knocked into the endogenous LRRK2 gene, stably expressing firefly luciferase
Assay: LRRK2 degradation HiBit assay in HEK293 cells (Nano-Glo Dual-Luciferase)
Type: cell-based
Settings: HiBit-tagged LRRK2 in HEK293 cells, 24 hours compound treatment

T1 sequence (Q5S007 whole entry): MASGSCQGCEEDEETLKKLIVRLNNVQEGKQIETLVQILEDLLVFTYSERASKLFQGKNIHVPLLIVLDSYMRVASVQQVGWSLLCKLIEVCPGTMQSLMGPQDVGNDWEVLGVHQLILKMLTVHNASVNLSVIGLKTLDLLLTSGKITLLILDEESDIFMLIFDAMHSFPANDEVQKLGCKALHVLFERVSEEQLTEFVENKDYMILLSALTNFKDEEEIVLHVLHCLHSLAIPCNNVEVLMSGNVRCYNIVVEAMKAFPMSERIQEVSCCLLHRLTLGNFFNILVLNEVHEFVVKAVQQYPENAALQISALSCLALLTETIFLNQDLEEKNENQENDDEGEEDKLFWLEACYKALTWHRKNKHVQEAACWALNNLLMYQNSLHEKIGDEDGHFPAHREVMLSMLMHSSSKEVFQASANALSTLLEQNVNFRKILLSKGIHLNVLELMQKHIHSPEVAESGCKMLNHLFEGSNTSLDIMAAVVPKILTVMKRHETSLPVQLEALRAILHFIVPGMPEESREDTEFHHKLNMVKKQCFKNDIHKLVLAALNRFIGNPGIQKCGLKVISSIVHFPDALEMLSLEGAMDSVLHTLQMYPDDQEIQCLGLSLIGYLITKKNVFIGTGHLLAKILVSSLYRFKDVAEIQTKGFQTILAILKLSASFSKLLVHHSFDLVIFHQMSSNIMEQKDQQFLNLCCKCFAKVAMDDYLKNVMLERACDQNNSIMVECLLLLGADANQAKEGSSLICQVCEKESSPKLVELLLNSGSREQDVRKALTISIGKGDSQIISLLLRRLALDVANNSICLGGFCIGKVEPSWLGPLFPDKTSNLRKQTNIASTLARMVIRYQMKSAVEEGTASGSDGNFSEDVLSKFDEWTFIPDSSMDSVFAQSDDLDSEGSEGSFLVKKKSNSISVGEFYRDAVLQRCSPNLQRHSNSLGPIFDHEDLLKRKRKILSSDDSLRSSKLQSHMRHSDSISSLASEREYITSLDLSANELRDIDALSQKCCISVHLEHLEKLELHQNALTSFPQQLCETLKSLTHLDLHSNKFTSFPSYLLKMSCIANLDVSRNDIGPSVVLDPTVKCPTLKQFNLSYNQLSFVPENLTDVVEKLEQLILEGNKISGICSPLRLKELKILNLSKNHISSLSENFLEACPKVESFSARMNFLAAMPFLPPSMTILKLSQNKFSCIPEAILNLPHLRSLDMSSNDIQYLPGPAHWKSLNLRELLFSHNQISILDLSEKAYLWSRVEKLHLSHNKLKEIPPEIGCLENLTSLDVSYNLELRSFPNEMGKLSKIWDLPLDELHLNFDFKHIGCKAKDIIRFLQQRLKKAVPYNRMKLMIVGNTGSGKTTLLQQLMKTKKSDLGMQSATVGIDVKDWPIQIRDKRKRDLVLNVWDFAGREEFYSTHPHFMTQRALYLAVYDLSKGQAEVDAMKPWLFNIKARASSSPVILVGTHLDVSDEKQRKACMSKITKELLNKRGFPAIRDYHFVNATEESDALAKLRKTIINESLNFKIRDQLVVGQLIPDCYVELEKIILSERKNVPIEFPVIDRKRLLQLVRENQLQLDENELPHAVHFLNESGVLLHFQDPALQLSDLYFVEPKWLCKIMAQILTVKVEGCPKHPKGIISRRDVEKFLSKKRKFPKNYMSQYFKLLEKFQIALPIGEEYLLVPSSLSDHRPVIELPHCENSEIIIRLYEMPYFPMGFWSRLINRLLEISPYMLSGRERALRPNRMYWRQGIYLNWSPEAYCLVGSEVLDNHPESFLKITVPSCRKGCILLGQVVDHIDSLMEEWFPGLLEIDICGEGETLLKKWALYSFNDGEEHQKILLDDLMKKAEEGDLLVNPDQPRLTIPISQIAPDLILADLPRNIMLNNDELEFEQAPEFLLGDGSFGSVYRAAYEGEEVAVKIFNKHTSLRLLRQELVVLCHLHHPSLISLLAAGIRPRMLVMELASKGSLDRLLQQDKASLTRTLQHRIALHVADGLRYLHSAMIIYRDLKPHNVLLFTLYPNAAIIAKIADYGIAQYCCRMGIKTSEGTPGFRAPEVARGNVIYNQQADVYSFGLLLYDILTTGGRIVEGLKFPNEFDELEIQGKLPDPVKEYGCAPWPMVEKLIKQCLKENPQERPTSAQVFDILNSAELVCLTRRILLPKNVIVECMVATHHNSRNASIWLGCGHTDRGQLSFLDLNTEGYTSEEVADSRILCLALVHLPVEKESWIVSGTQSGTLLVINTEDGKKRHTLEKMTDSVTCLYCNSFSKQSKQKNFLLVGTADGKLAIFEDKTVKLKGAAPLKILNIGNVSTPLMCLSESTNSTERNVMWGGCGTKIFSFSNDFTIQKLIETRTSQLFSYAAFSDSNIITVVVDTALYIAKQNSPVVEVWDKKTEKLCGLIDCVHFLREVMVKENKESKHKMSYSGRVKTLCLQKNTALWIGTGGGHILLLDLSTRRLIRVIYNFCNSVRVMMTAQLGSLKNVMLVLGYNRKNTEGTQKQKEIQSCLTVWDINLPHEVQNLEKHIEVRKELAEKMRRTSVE

SMILES	Dmax [%]
CC1(Oc2ccc3[nH]nc(-c4cc(N5CCO[C@H](CN6CCN(CC7CCN(c8ccc9c(c8F)CN(C8CCC(=O)NC8=O)C9=O)CC7)CC6)C5)ncn4)c3c2)CC1 (stereo partly drawn) [Example 1, 3-[4-fluoro-5-[4-[[4-[[(2R)-4-[6-[5-(1-methylcyclopropoxy)-1H-indazol-3-yl]pyrimidin-4-yl]morpholin-2-yl]methyl]piperazin-1-yl]methyl]-1-piperidyl]-1-oxo-isoindolin-2-yl]piperidine-2,6-dione]	50 to 70
CC1(Oc2ccc3[nH]nc(-c4cc(N5CCO[C@@H](CN6CCN(CC7CCN(c8ccc9c(c8F)CN(C8CCC(=O)NC8=O)C9=O)CC7)CC6)C5)ncn4)c3c2)CC1 (some centres unmarked) [Example 2]	50 to 70
CC1(Oc2ccc3[nH]nc(-c4cc(N5CCO[C@H](CN6CCN(CC7CCN(c8ccc9c(c8F)CN(C8CCC(=O)NC8=O)C9=O)CC7)CC6(C)C)C5)ncn4)c3c2)CC1 (some centres unmarked) [Example 3]	50 to 70
COc1c(N2CCC(O[C@H]3C[C@H](N4CCC5(CC4)CN(c4cc(-c6[nH]nc7ccc(OC8(C)CC8)cc67)ncn4)C5)C3)CC2)ccc2c1CN(C1CCC(=O)NC1=O)C2=O (some centres unmarked) [Example 4, 3-[4-methoxy-5-[4-[3-[2-[6-[5-(1-methylcyclopropoxy)-2H-indazol-3-yl]pyrimidin-4-yl]-2,7-diazaspiro[3.5]nonan-7-yl]cyclobutoxy]-1-piperidyl]-1-oxo-isoindolin-2-yl]piperidine-2,6-dione]	50 to 70
CC1(Oc2ccc3[nH]nc(-c4cc(N5CCN(C[C@@H]6CN(CCC7CCN(c8ccc9c(c8F)CN(C8CCC(=O)NC8=O)C9=O)CC7)CCO6)CC5)ncn4)c3c2)CC1 (some centres unmarked) [Example 5]	50 to 70
CC1(Oc2ccc3[nH]nc(-c4cc(N5CCN(CCC6(F)CCN(CC7CCN(c8ccc9c(c8F)CN(C8CCC(=O)NC8=O)C9=O)CC7)CC6)CC5)ncn4)c3c2)CC1 (centres unmarked) [Example 6, 3-[4-fluoro-5-[4-[[4-fluoro-4-[2-[4-[6-[5-(1-methylcyclopropoxy)-1H-indazol-3-yl]pyrimidin-4-yl]piperazin-1-yl]ethyl]-1-piperidyl]methyl]-1-piperidyl]-1-oxo-isoindolin-2-yl]piperidine-2,6-dione]	50 to 70
CC1(Oc2ccc3[nH]nc(-c4cc(N5CCC(CN6CC[C@@H](CN7CCN(c8ccc9c(c8F)CN(C8CCC(=O)NC8=O)C9=O)CC7)[C@@H](F)C6)CC5)ncn4)c3c2)CC1 (some centres unmarked) [Example 7]	50 to 70
CC1(Oc2ccc3[nH]nc(-c4cc(N5CCN(CCN6CCN(CC7CCN(c8ccc9c(c8F)CN(C8CCC(=O)NC8=O)C9=O)CC7)CC6)CC5)ncn4)c3c2)CC1 (centres unmarked) [Example 8]	50 to 70
CC1(Oc2ccc3[nH]nc(-c4cc(N5CCN(C[C@@H]6CCN(CC7CCN(c8ccc9c(c8F)CN(C8CCC(=O)NC8=O)C9=O)CC7)C[C@@H]6F)CC5)ncn4)c3c2)CC1 (some centres unmarked) [Example 9]	50 to 70
CC1(Oc2ccc3[nH]nc(-c4cc(N5CCN(C[C@H]6CC[C@H](CN7CCN(c8ccc9c(c8F)CN(C8CCC(=O)NC8=O)C9=O)CC7)OC6)CC5)ncn4)c3c2)CC1 (some centres unmarked) [Example 10]	50 to 70
CC1(Oc2ccc3[nH]nc(-c4cc(N5CCC(O[C@@H]6CCN(CC7CCN(c8ccc9c(c8F)CN(C8CCC(=O)NC8=O)C9=O)CC7)C(C)(C)C6)CC5)ncn4)c3c2)CC1 (some centres unmarked) [Example 11]	50 to 70
CC1(Oc2ccc3[nH]nc(-c4cc(N5CCN(C[C@H]6CN(CC7CCN(c8ccc9c(c8F)CN(C8CCC(=O)NC8=O)C9=O)CC7)CCO6)CC5)ncn4)c3c2)CC1 (stereo partly drawn) [Example 12, 3-[4-fluoro-5-[4-[[(2S)-2-[[4-[6-[5-(1-methylcyclopropoxy)-1H-indazol-3-yl]pyrimidin-4-yl]piperazin-1-yl]methyl]morpholin-4-yl]methyl]-1-piperidyl]-1-oxo-isoindolin-2-yl]piperidine-2,6-dione]	50 to 70
CC1(Oc2ccc3[nH]nc(-c4cc(N5CCN(C[C@@H]6CN(CC7CCN(c8ccc9c(c8F)CN(C8CCC(=O)NC8=O)C9=O)CC7)CCO6)CC5)ncn4)c3c2)CC1 (some centres unmarked) [Example 13]	50 to 70
CC1(Oc2ccc3[nH]nc(-c4cc(N5CCN(C[C@H]6CC[C@H](OC7CCN(c8ccc9c(c8)CN(C8CCC(=O)NC8=O)C9=O)CC7)CC6)CC5)ncn4)c3c2)CC1 (some centres unmarked) [Example 14, 3-[5-[4-[4-[[4-[6-[5-(1-methylcyclopropoxy)-1H-indazol-3-yl]pyrimidin-4-yl]piperazin-1-yl]methyl]cyclohexoxy]-1-piperidyl]-1-oxo-isoindolin-2-yl]piperidine-2,6-dione]	50 to 70
CC1(Oc2ccc3[nH]nc(-c4cc(N5CCN(CC(F)(F)C6CCN(CC7CCN(c8ccc9c(c8F)CN(C8CCC(=O)NC8=O)C9=O)CC7)CC6)CC5)ncn4)c3c2)CC1 (centres unmarked) [Example 15]	50 to 70
CC1(Oc2ccc3[nH]nc(-c4cc(N5CCO[C@@H](CN6CCN(CC7CCN(c8ccc9c(c8F)CN(C8CCC(=O)NC8=O)C9=O)CC7)CC6(C)C)C5)cnn4)c3c2)CC1 (some centres unmarked) [Example 16]	50 to 70
CC1(Oc2ccc3[nH]nc(-c4cc(N5CCN(C[C@H]6CN(CCC7CCN(c8ccc9c(c8F)CN(C8CCC(=O)NC8=O)C9=O)CC7)CCO6)CC5)ncn4)c3c2)CC1 (some centres unmarked) [Example 17]	50 to 70
Cc1cc(N2CCC(O[C@H]3CC[C@H](CN4CCN(c5cc(-c6n[nH]c7ccc(OC8(C)CC8)cc67)ncn5)CC4)CC3)CC2)c(F)c2c1C(=O)N(C1CCC(=O)NC1=O)C2 (some centres unmarked) [Example 18, 3-(4-fluoro-7-methyl-5-(4-(((1r,4r)-4-((4-(6-(5-(1-methylcyclopropoxy)-1H-indazol-3-yl)pyrimidin-4-yl)piperazin-1-yl)methyl)cyclohexyl)oxy)piperidin-1-yl)-1-oxoisoindolin-2-yl)piperidine-2,6-dione]	≥ 70
Cc1cc(N2CCC(CN3CCN(CC4CCN(c5cc(-c6n[nH]c7ccc(OC8(C)CC8)cc67)ncn5)CC4)C(C)(C)C3)CC2)c(F)c2c1C(=O)N(C1CCC(=O)NC1=O)C2 (centres unmarked) [Example 19]	50 to 70

The remaining lines, values ahead:

Dmax [%]	SMILES
< 50	Cc1cc(N2CCC(O[C@H]3CC[C@@H](CN4CCN(c5cc(-c6n[nH]c7ccc(OC8(C)CC8)cc67)ncn5)CC4)CC3)CC2)c(F)c2c1C(=O)N(C1CCC(=O)NC1=O)C2 (some centres unmarked) [Example 20, 3-(4-fluoro-7-methyl-5-(4-(((1s,4s)-4-((4-(6-(5-(1-methylcyclopropoxy)-1H-indazol-3-yl)pyrimidin-4-yl)piperazin-1-yl)methyl)cyclohexyl)oxy)piperidin-1-yl)-1-oxoisoindolin-2-yl)piperidine-2,6-dione]
50 to 70	CC1(Cc2ccc3[nH]nc(-c4cc(N5CCC(CN6CCN(CC7CCN(c8ccc9c(c8F)CN(C8CCC(=O)NC8=O)C9=O)CC7)CC6)CC5)ncn4)c3c2)CC1 (centres unmarked) [Example 21]
≥ 70	CC1(Oc2ccc3[nH]nc(-c4cc(N5CCC(C[C@H]6CC[C@@H](OC7CCN(c8ccc9c(c8F)CN(C8CCC(=O)NC8=O)C9=O)CC7)CC6)CC5)ncn4)c3c2)CC1 (some centres unmarked) [Example 22, 3-[4-fluoro-5-[4-[4-[[1-[6-[5-(1-methylcyclopropoxy)-1H-indazol-3-yl]pyrimidin-4-yl]-4-piperidyl]methyl]cyclohexoxy]-1-piperidyl]-1-oxo-isoindolin-2-yl]piperidine-2,6-dione]
50 to 70	CC1(Oc2ccc3[nH]nc(-c4cc(N5CCC(C[C@H]6CC[C@H](OC7CCN(c8ccc9c(c8F)CN(C8CCC(=O)NC8=O)C9=O)CC7)CC6)CC5)ncn4)c3c2)CC1 (some centres unmarked) [Example 23]
< 50	CC1(Cc2ccc3[nH]nc(-c4cc(N5CCC(OC6CCN(CC7CCN(c8ccc9c(c8F)CN(C8CCC(=O)NC8=O)C9=O)CC7)CC6)CC5)ncn4)c3c2)CC1 (centres unmarked) [Example 24]
< 50	CC1(Cc2ccc3[nH]nc(-c4cc(N5CCC(CN6CCN(CC7CCN(c8ccc9c(c8F)CN(C8CCC(=O)NC8=O)C9=O)CC7)CC6(C)C)CC5)ncn4)c3c2)CC1 (centres unmarked) [Example 25]
50 to 70	CC1(Cc2ccc3[nH]nc(-c4cc(N5CCC(CN6CCN(CC7CCN(c8ccc9c(c8F)CN(C8CCC(=O)NC8=O)C9=O)CC7)C(C)(C)C6)CC5)ncn4)c3c2)CC1 (centres unmarked) [Example 26]
50 to 70	CC1(Oc2ccc3[nH]nc(-c4cc(N5CCC(O[C@H]6CC[C@@H](CC7CCN(c8ccc9c(c8F)CN(C8CCC(=O)NC8=O)C9=O)CC7)CC6)CC5)ncn4)c3c2)CC1 (some centres unmarked) [Example 27]
50 to 70	COc1c(N2CCC(O[C@H]3CC[C@H](CN4CCN(c5cc(-c6[nH]nc7ccc(CC8(C)CC8)cc67)ncn5)CC4)CC3)CC2)ccc2c1CN(C1CCC(=O)NC1=O)C2=O (some centres unmarked) [Example 28]
≥ 70	CC1(Oc2ccc3[nH]nc(-c4cc(N5CCC(O[C@H]6CC[C@H](CC7CCN(c8ccc9c(c8F)CN(C8CCC(=O)NC8=O)C9=O)CC7)CC6)CC5)ncn4)c3c2)CC1 (some centres unmarked) [Example 29]
